Test results as given in PubChem BioAssay (NCI).
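Step 1: Grow cells in 96-well plates. Step 2: Expose to compound for 48 hours at 5 concentrations. Step 3: Interpolate endpoints linearly; if unreached, use highest concentration. The concentration for full growth arrest is given as TGI.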

Tests used:
Test in all cases: inhibition of tumour cell growth, NCI panel, 48 h
RPMI-8226 leukemia = system: RPMI-8226 leukemia
MDA-MB-231 breast = system: MDA-MB-231 breast
MDA-N = system: MDA-N
SN12C renal = system: SN12C renal
OVCAR-5 ovarian = system: OVCAR-5 ovarian
SNB-19 CNS = system: SNB-19 CNS
BT-549 breast = system: BT-549 breast
U251 CNS = system: U251 CNS
KM12 colon = system: KM12 colon
MOLT-4 leukemia = system: MOLT-4 leukemia
HCT-15 colon = system: HCT-15 colon
COLO 205 colon = system: COLO 205 colon
NCI-H460 lung = system: NCI-H460 lung
LOX IMVI melanoma = system: LOX IMVI melanoma
MDA-MB-435 = system: MDA-MB-435
M14 melanoma = system: M14 melanoma
MALME-3M melanoma = system: MALME-3M melanoma
SR leukemia = system: SR leukemia
HOP-92 NSCLC = system: HOP-92 NSCLC
SW-620 colon = system: SW-620 colon
UACC-62 melanoma = system: UACC-62 melanoma
UACC-257 melanoma = system: UACC-257 melanoma
OVCAR-4 ovarian = system: OVCAR-4 ovarian
DU-145 prostate = system: DU-145 prostate
786-0 renal = system: 786-0 renal
HS 578T breast = system: HS 578T breast
MCF7 breast = system: MCF7 breast
EKVX NSCLC = system: EKVX NSCLC
SK-MEL-28 melanoma = system: SK-MEL-28 melanoma
NCI-H23 lung = system: NCI-H23 lung
HCC-2998 colon = system: HCC-2998 colon
ACHN renal = system: ACHN renal
SK-MEL-2 melanoma = system: SK-MEL-2 melanoma
A549 NSCLC = system: A549 NSCLC
OVCAR-3 ovarian = system: OVCAR-3 ovarian
HOP-62 NSCLC = system: HOP-62 NSCLC
OVCAR-8 ovarian = system: OVCAR-8 ovarian
NCI-H522 lung = system: NCI-H522 lung
NCI/ADR-RES ovarian = system: NCI/ADR-RES ovarian
TK-10 renal = system: TK-10 renal
T-47D breast = system: T-47D breast
K-562 leukemia = system: K-562 leukemia
NCI-H226 lung = system: NCI-H226 lung
UO-31 renal = system: UO-31 renal
SK-OV-3 ovarian = system: SK-OV-3 ovarian
HCT-116 colon = system: HCT-116 colon
SF-295 CNS = system: SF-295 CNS
RXF 393 renal = system: RXF 393 renal
CAKI-1 renal = system: CAKI-1 renal
A498 renal = system: A498 renal
SF-268 CNS = system: SF-268 CNS
SK-MEL-5 melanoma = system: SK-MEL-5 melanoma
SF-539 CNS = system: SF-539 CNS
HT29 colon = system: HT29 colon

Measured: TGI

Cc1ccc(S(=O)(=O)Nc2nnc(S(N)(=O)=O)s2)cc1
not listed: SF-539 CNS | HT29 colon
> 100 µM: all other assays above

CCN(CC)C(=S)SS(=O)(=O)c1cccc(N)c1
> 100 µM: all assays above
